From patent US9790469B2, “Established human brown adipocyte line and method for differentiation from an hMADS cell line” (CENTRE NATIONAL DE LA RECHERCHE SCIENTIFIQUE (CNRS), priority 2008, dated 2017)

What was measured:
[1] = system: human brown adipocytes immortalized by transgenesis and expressing β3-adrenergic receptors; settings: Zilberfarb 1997; Jockers 1998; cited from earlier work
hMADS-2 cells [2] = assay: Stimulation of UCP1 expression by β-adrenergic agonists in hMADS-2 cells differentiated into brown adipocytes; type: cell-based, human; settings: stimulation for 6 h at 10-100 nM; cells with 100 nM rosiglitazone days 3 to 16
Description: A) adipocytic differentiation of hMADS-2 cells was carried out in the presence of 100 nM rosiglitazone on the days indicated and mRNA levels were determined on day 17 by quantitative RT-PCR. (B, C) differentiation was obtained in the presence of 100 nM rosiglitazone between days 3 and 16, in the absence or the presence during the 6 last hours of β-adrenergic agonists at the indicated concentrations. The results represent the mean±SD of 3 (A) and 2 (B) independent experiments carried out with various series of cells; they are expressed by taking as 100% the values obtained either during treatment between days 3 and 9 (A) or in the absence of β-adrenergic agonists (B, C).
(§1) RNA purification and analysis: RNA extraction, the use of reverse transcriptase and determination of mRNA levels by real-time quantitative RT-PCR have been described (Zaragosi, L. E et al., Stem Cells, 2006. 24(11): p. 2412-9; Elabd, C, et al., Biochem Biophys Res Commun, 2007. 361(2): p. 342-8; Bezy, O., et al., J Biol Chem, 2005. 280(12): p. 11432-8). Expression of the genes of interest was normalized compared with the one of the TBP gene and was quantified using the ΔCt comparative method. […]
Immunoblot analysis: Total cellular lysates are analyzed by immunoblot as previously described (Bezy, O., et al., J Biol Chem, 2005. 280(12): p. 11432-8). […]

hMADS-2 cells [3] = assay: Adipocytic differentiation of hMADS-2 cells (Oil Red O lipid staining, GPDH activity, PPARγ mRNA); type: cell-based, human
Description: (§2) Expression of the genes of interest was normalized compared with the one of the TBP gene and was quantified using the ΔCt comparative method. The sequences of oligonucleotide primers, obtained using the Primer Express Software (Perkin Elmer Life Sciences), are described in Table 1 below.

[4] = system: hMADS-2 cells differentiated into white adipocytes; assay: Induction of a brown phenotype in hMADS-2 cells previously differentiated into white adipocytes; type: cell-based, human; settings: for expression of the UCP1 protein: exposure between days 14 and 16 with specific PPAR ligands; for UCP1 gene expression: replacement of rosiglitazone, 10 μM, results not shown
Description: Initially hMADS-2 cells were differentiated into white adipocytes with 100 nM rosiglitazone present between days 3 and 9. Once eliminated, the ligand is added or not added on day 14 and during the following days at the indicated […] concentrations.
The results are expressed as stimulation factor by taking as 1 the values obtained on day 16 after exposure to 100 nM rosiglitazone between days 3 and 9; the values represent the mean±SD of 2 independent experiments carried out with various series of cells.
as §2
The primary antibodies obtained from the rabbit, anti-human UCP1 and anti-TBP, are products from Santa Cruz Biotechnology (Santa Cruz, Calif., USA) and the secondary antibodies (conjugated with horseradish peroxidase) are products from Promega (Charbonnières, France). The “Enhanced Chemiluminescence” system (Millipore, Saint-Quentin-Yvelines, France) was used for detection.

hMADS-2 cells [5] = assay: Oxygen consumption and respiratory uncoupling of hMADS-2 cells (respirometer); type: cell-based, human
Description: On day 20, oxygen consumption (A), decoupling of oxidative phosphorylation (B) and stimulation of oxygen consumption by isoprenaline (C) were measured according to the protocol described in “Materials and Methods”. […] Determination of oxygen consumption: Oxygen consumption was measured using two-chamber injection respirometer equipped with a Peltier thermostat, Clark electrodes and integrated magnetic stirrers (Oroboros, Innsbruck, Austria). Measurements were made at 37° C. with constant stirring in a volume of 2 ml of DMEM/F12 medium (1:1, v/v) containing 10% fetal calf serum. Before each measurement, the medium present in the chambers was equilibrated with air for 30 min, and then the freshly-trypsinized cells were transferred to this medium. […] The respiratory chain was blocked with 1 μg/ml antimycin A. Oxygen consumption was calculated using the DataGraph software (Oroboros Software). Basal respiratory activity corresponds to oxygen consumption sensitive to antimycin A. Respiratory activity was stimulated in the presence of 1 μM isoprenaline added extemporaneously in the injection chamber, with measurements made as described above.

hMADS-2 cells [6] = assay: Expression of brown adipocyte markers and related genes in hMADS-2 cells (quantitative RT-PCR, immunoblot); type: cell-based, human; settings: brown phenotype; ratio 1 for the white phenotype (days 3 to 9)
Description: Differentiation of hMADS-2 cells was carried out as described in FIG. 1. On day 16, levels of UCP1 (A), UCP2 (C), CIDEA (D) and CPT1B (E) mRNA were determined by quantitative RT-PCR. The results represent the mean±SD of 3 independent experiments carried out with various series of cells; they are expressed by taking as 100% the value obtained in the presence of 500 nM rosiglitazone. Levels of the UCP1 protein (B) were determined by immunoblotting on 2 different series of cells using TBP as endogenous internal standard.
Adipocytic differentiation of hMADS-2 cells was carried out in the presence of either rosiglitazone at 100 nM (A) or at the indicated concentrations (B). Levels of PRDM16, PGC-1α, PGC-1β and PPARα mRNA were determined by quantitative RT-PCR on day 16 (A) and day 17 (B). […]
Adipocytic differentiation of hMADS-2 cells was carried out in the presence of 100 nM rosiglitazone. On day 16, Bcl-2 and Bax mRNA levels were determined by quantitative RT-PCR. […]
as §1, with “11432-8).” for “11432-8). Expression of the genes of interest was normalized compared with the one of the TBP gene and was quantified using the ΔCt comparative method.”

[7] = 100 nM, days 3 to 20 (brown) versus days 3 to 9 (white)

Molecule: CC(C)(C)NCC(O)COc1cccc2[nH]c(=O)[nH]c12 (stereo not shown) [CGP12177A]
- lipolytic activity [1]: only weak lipolytic activity

Molecule: C[C@H](Cc1ccc2c(c1)OC(C(=O)[O-])(C(=O)[O-])O2)NC[C@H](O)c1cccc(Cl)c1.[Na+].[Na+] [CL316243]
- expression of UCP1 mRNA and UCP1 protein (hMADS-2 cells [2]): significantly increased

Molecule: O=C(Nc1ccccc1)c1cc([N+](=O)[O-])ccc1Cl [GW 9662]
- differentiation of hMADS cells into adipocytes (hMADS-2 cells [3]; PPARγ antagonist added to the differentiation medium): prevents
- expression of the UCP-1 gene ([4]; PPARγ antagonist added, cells differentiated beforehand into white adipocytes): does not allow expression of the UCP-1 gene

Molecule: CCCc1c(OCCCOc2ccc(OCC(=O)O)cc2)ccc(C(C)=O)c1O [L165041]
- expression of the UCP1 protein [4]: not inducing the expression of the UCP1 protein

Molecule: Cc1cccc(Nc2cc(Cl)nc(SCC(=O)O)n2)c1C [Wy14643]
- expression of the UCP1 protein [4]: not inducing the expression of the UCP1 protein

Molecule: CCCCC/C=C\C/C=C\C/C=C\C/C=C\CCCC(=O)O [arachidonic acid]
- UCP1 gene expression [4]: no effect

Molecule: CC/C=C\C/C=C\C/C=C\C/C=C\C/C=C\C/C=C\CCC(=O)O [docosahexaenoic acid]
- UCP1 gene expression [4]: no effect

Molecule: CC/C=C\C/C=C\C/C=C\C/C=C\C/C=C\CCCC(=O)O [eicosapentaenoic acid]
- UCP1 gene expression [4]: no effect

Molecule: CC(C)NCC(O)c1ccc(O)c(O)c1 (stereo not shown) [isoproterenol]
- expression of UCP1 mRNA and UCP1 protein (hMADS-2 cells [2]): significantly increased
- stimulation of oxygen consumption (hMADS-2 cells [5]; 1 μM, cells with brown phenotype): important stimulation

Molecule: CN(CCOc1ccc(CC2SC(=O)NC2=O)cc1)c1ccccn1 (stereo not shown) [rosiglitazone]
- ratio of Bcl-2 to Bax (hMADS-2 cells [6]): 3.7
- increase factor of total respiratory activity (hMADS-2 cells [5]; [7]): 3
- increase factor of uncoupled respiratory activity (hMADS-2 cells [5]; [7]): 2.5

B1: BMP7: Bone Morphogentic Protein 7 (BMP7) (protein, UniProt P18075 293-431, looked up)
Bone morphogenetic protein 7: STGSKQRSQNRSKTPKNQEALRMANVAENSSSDQRQACKKHELYVSFRDLGWQDWIIAPEGYAAYYCEGECAFPLNSYMNATNHAIVQTLVHFINPETVPKPCCAPTQLNAISVLYFDDSSNVILKKYRNMVVRACGCH
- differentiation of hMADS cells into adipocytes (hMADS-2 cells [3]; BMP7 alone, in the absence of rosiglitazone): does not enable their differentiation into adipocytes
- UCP-1 protein expression ([4]; cells differentiated beforehand into white adipocytes): weak increase
